Where “and” joins values, the source holds several entries; their conditions need not be identical. Identical values can stand only once.
Test system: mdx mice
Experiment: Chronic treatment of mdx mice, hematoxylin-eosin histology of TA muscle
Format: in vivo, mouse
Conditions: SR 30 mg/kg; for Percentage of area exhibiting necrosis or infiltration, TA muscle: Fig 7C, 8K-NBD 10 mg/kg i.p. 3 times/wk for 4 wk, single mice; for Muscle pathology of TA muscle (hematoxylin-eosin): 8K-NBD 10 mg/kg, 3 times/wk 4 wk
Description: Fig 7 NBD mimetics improve muscular pathology and grip strength in mdx mice. (A) Shown is the treatment regimen with NBD mimetics in mdx mice. (B) Hematoxylin–eosin staining of TA muscle from 7-wk-old, treated or untreated mdx mice. Images were taken at magnification of 20×. Representative images were shown for each treatment group. […] (E) TA muscle from 7-wk-old, treated or untreated mdx mice was stained with laminin by IHC to outline myofibers. Overall images of TA muscle were shown on the left side, and the inset panel images were shown on the right side. (F) Quantitation of minimum Feret diameter in centrally and noncentrally nucleated myofibers. (G) Forelimb force determined by grip strength test. Five-wk-old (2 wk post treatment) and 7-wk-old (4 wk post treatment) mdx mice, treated or untreated, were tested for forelimb grip strength. Five sequential tests were performed, and the force was normalized to body weight. Data were shown as mean +/− SEM. Dosages used are as follows: SR12343 (30 mg/kg), SR12460 (30 mg/kg), and 8K-NBD peptide (10 mg/kg). n = 6–7 each group. *P < 0.05, **P < 0.01. Underlying data can be found in S1 Data. eMyHC, embryonic myosin heavy chain; IHC, immunohistochemistry; NBD, NEMO-binding domain; NEMO, NF-κB essential modulator; Pax7, paired box protein 7; qRT-PCR, quantitative real-time polymerase chain reaction; TA, tibialis anterior.
To determine whether SR12343 and SR12460 improve muscle pathology, TA muscle was stained with hematoxylin–eosin to assess inflammatory infiltration, necrosis, central nucleation, and fibrosis. […] In addition, Masson trichrome stain was conducted to further measure muscle fibrosis. Chronic treatment with SR12343 reduced muscle fibrosis (blue) in diaphragm and TA muscle tissues in comparison to control group (Fig 8A & 8B). To further quantitate the extent of inflammation in mdx muscle tissues, diaphragm and TA muscle were immunostained for cluster of differentiation 68 (CD68), a macrophage marker. Treatment with SR12343 reduced the number of CD68^+ cells by almost 50% per myofiber in both diaphragm and TA tissues (Fig 8A & 8B). […] To quantify the average fiber size in an unbiased way, TA muscle was stained with laminin to outline myofibers, and Feret diameter of all myocytes was quantitated in a whole muscle section.
HEK293 cells and MEFs were grown in Dulbecco’s Modified Eagle Medium (with 4.5 g/L glucose and L-glutamine), supplemented with 10% fetal bovine serum, penicillin, and streptomycin. […]
Supplementary file pbio.2004663.s005.tif: S4 Fig Chronic treatment with NBD mimetics improves muscle pathology by inhibiting NF-κB DNA binding activity in mdx mice. (A) Quantification of percentage of centralized myonuclei. […]

Compound | Percentage of area exhibiting necrosis or infiltration, TA muscle | Muscle pathology of TA muscle (hematoxylin-eosin)
O=C(CNCCc1cc(F)cc(F)c1)Nc1ccc(Cl)cn1 [SR12460] | 3% and 6% | improved muscle pathology, although not as effectively as SR12343
O=C(CNc1ccc(Cl)cn1)NCCc1cccc(Br)c1 [SR12343] | 2% and 3% and 0% and 1% | most significant pathological improvement

From PMC6013238, “Development of novel NEMO-binding domain mimetics for inhibiting IKK/NF-κB activation” (PLoS Biology, 2018)
